From patent publication US20230174575A1 (priority 2020, published 2023)
Like-named read-outs stand apart in the source and are kept apart here.

Tests used:
[1] = system: Vero cells; assay: Cell toxicity against Vero cells by MTT assay; details: MTT assay
Protocol: (§1) Cell toxicity was monitored by establishing the effect of lysozyme HCl against Vero cells (epithelial cells of monkey kidneys). The cells were seeded in 96-well plates at the concentration of 1×10^4 cells/well. 24 hours after seeding, the cells were treated with serial dilutions of lysozyme HCl or chloroquine (as control), in a final volume of 200 in triplicate. After 72 hours' incubation at 37° C. with 5% CO2, cell viability was measured by MTT assay (D'Alessandro, M. et al., Differential effects on angiogenesis of two antimalarial compounds, dihydroartemisinin and artemisone: Implications for embryotoxicity, Toxicology. 241 (2007) 66-74. Doi: 10.1016/j.tox.2007.08.084).
(§2) The data were calculated as percentage cell viability using the formula:
(§3) [(absorbance of sample−blank of cell-free sample)/mean absorbance of control of media]×100.
(§4) The cytotoxicity of ovotransferrin and chloroquine (CQ) was measured by MTT assay, similarly to the method used for lysozyme HCl.

[2] = Cell toxicity against Vero cells by MTT assay; details: African green monkey
Protocol: as §1, §2, §3, §4

[3] = system: SARS-CoV-2; assay: Virucidal activity, plaque test; format: cell-based
[4] = system: Micrococcus lysodeikticus cells; assay: Enzyme activity, enzymatic turbidimetric method (FIP method); format: biochemical
Protocol: • Flow rate: 1 ml/min Determination of assay value (enzymatic turbidimetric method using Micrococcus lysodeikticus cells): according to the FIP method (Pharmaceutical Enzyme, Ed 1997, 84, 375) and J Pharm Pharmacol. 2001; 53 (4); 549-54.

[5] = system: SARS-CoV-2; format: cell-based; details: for Percentage replication of SARS-CoV-2 (lysozyme only): no ovotransferrin

With `CCN(CC)CCCC(C)Nc1ccnc2cc(Cl)ccc12` (stereo not drawn) [CQ, chloroquine, reference compound] the CC10 ([1]; unit not given) was 20.93±4.39 and the CC50 at 72 h [2] was 95.3 ± 18 µM.

With “Heat-treated lysozyme: lysozyme HCl heat-treated at 99° C. for 40 minutes” the “mean PFU/ml (average of three experiments)” value (“mean PFU/ml” for short) ([3]; 0.42 mg/ml) was 58.61 PFU/ml, the “percentage (PFU relative to untreated infected cells)” value ([3]; 0.42 mg/ml) was 57.2% and the “infectivity of SARS-CoV-2 reduced by” value ([3]; 0.42 mg/ml, plaque assay) was 57.2%. The “mean PFU/ml” value ([3]; 0.56 mg/ml) was 60.41 PFU/ml, the “percentage (PFU relative to untreated infected cells)” value ([3]; 0.56 mg/ml) was 58.9% and the “infectivity of SARS-CoV-2 reduced by” value ([3]; 0.56 mg/ml, plaque assay) was 58.9%. For the same compound, the “mean PFU/ml” value ([3]; 1 mg/ml) was 71.32 PFU/ml, the “percentage (PFU relative to untreated infected cells)” value ([3]; 1 mg/ml) was “(69.6%)” and the “infectivity of SARS-CoV-2 reduced by” value ([3]; 1 mg/ml, plaque assay) was 69.6%.

In the case of lysozyme hydrochloride [Lysozyme HCl], the “Enzyme activity (turbidimetric method)” value ([4]; No heat treatment) is reported as 98.7, the “Enzyme activity (turbidimetric method)” value ([4]; after dry heat treatment (74° C. for 60 min)) is reported as 98.8 and the “Enzyme activity (turbidimetric method)” value ([4]; after dry heat treatment (99° C. for 40 min)) is reported as 98.1. The “Enzyme activity (turbidimetric method)” value ([4]; after heat treatment in aqueous solution, 90° C. for 3 minutes) was 97.3, the “Enzyme activity (turbidimetric method)” value ([4]; after heat treatment in aqueous solution, 90° C. for 6 minutes) was 97.4 and the “Enzyme activity (turbidimetric method)” value ([4]; after heat treatment in aqueous solution, 90° C. for 20 minutes) was 92.1. For the same compound, the “Enzyme activity (turbidimetric method)” value ([4]; after heat treatment in aqueous solution, 90° C. for 25 minutes) was 88.8, the “antiviral activity against SARS-CoV-2 infection in the in vitro test” value [5] was “high antiviral activity” and the percentage viral replication [5] was “very low, and close to zero”. For the same compound, the “% viral replication (average of 9 replications)” value (from here on “% viral replication”) ([5]; Dry heat treatment (74° C. for 60 min), 0.33 mg/mL) was 83.24%, the “% viral replication” value ([5]; Dry heat treatment (74° C. for 60 min), 0.5 mg/mL) was 42.05% and the “% viral replication” value ([5]; Dry heat treatment (74° C. for 60 min), 0.75 mg/mL) was 11.31%. The “% viral replication” value ([5]; Dry heat treatment (99° C. for 40 min), 0.33 mg/mL) was 60.32%, the “% viral replication” value ([5]; Dry heat treatment (99° C. for 40 min), 0.5 mg/mL) was 35.56% and the “% viral replication” value ([5]; Dry heat treatment (99° C. for 40 min), 0.75 mg/mL) was 16.58%. For the same compound, the “% viral replication” value ([5]; Heat treatment in aqueous solution, 90° C. for 3 minutes, 0.33 mg/mL) was 87.85%, the “% viral replication” value ([5]; Heat treatment in aqueous solution, 90° C. for 3 minutes, 0.5 mg/mL) was 67.97% and the “% viral replication” value ([5]; Heat treatment in aqueous solution, 90° C. for 3 minutes, 0.75 mg/mL) was 15.55%. The “% viral replication” value ([5]; Heat treatment in aqueous solution, 90° C. for 6 minutes, 0.33 mg/mL) was 87.96%, the “% viral replication” value ([5]; Heat treatment in aqueous solution, 90° C. for 6 minutes, 0.5 mg/mL) was 51.62% and the “% viral replication” value ([5]; Heat treatment in aqueous solution, 90° C. for 6 minutes, 0.75 mg/mL) was 9.88%. The “% viral replication” value ([5]; Heat treatment in aqueous solution, 90° C. for 20 minutes, 0.33 mg/mL) was 78.00%, the “% viral replication” value ([5]; Heat treatment in aqueous solution, 90° C. for 20 minutes, 0.5 mg/mL) was 36.10% and the “% viral replication” value ([5]; Heat treatment in aqueous solution, 90° C. for 20 minutes, 0.75 mg/mL) was 18.30%. The “% viral replication” value ([5]; Heat treatment in aqueous solution, 90° C. for 25 minutes, 0.33 mg/mL) was 42.06%, the “% viral replication” value ([5]; Heat treatment in aqueous solution, 90° C. for 25 minutes, 0.5 mg/mL) was 24.61% and the “% viral replication” value ([5]; Heat treatment in aqueous solution, 90° C. for 25 minutes, 0.75 mg/mL) was 2.62%. For the same compound, the “% viral replication” value ([5]; No heat treatment, 0.33 mg/mL) was 79.72%, the “% viral replication” value ([5]; No heat treatment, 0.5 mg/mL) was 58.13% and the “% viral replication” value ([5]; No heat treatment, 0.75 mg/mL) was 25.51%. The “Percentage replication of SARS-CoV-2 (lysozyme only)” value (from here on “Percentage replication”) ([5]; lysozyme HCl 0.32 mg/ml) was 93%, the “Percentage replication” value ([5]; lysozyme HCl 0.42 mg/ml) was 89% and the “Percentage replication” value ([5]; lysozyme HCl 0.56 mg/ml) was 93%. The “viral replication inhibited by” value ([5]; lysozyme HCl 0.75 mg/ml, in the absence of ovotransferrin) was “about 62%”, the “Percentage replication” value ([5]; lysozyme HCl 0.75 mg/ml) was 62% and the “CC50 for Vero cells” value ([1]; 72 hours) was 13.3 mg/mL. For the same compound, the “mean PFU/ml” value ([3]; 0.42 mg/ml) was 70 PFU/ml, the “percentage (PFU relative to untreated infected cells)” value ([3]; 0.42 mg/ml) was 83.9% and the “mean PFU/ml” value ([3]; 0.56 mg/ml) was 61.65 PFU/ml. For the same compound, the “percentage (PFU relative to untreated infected cells)” value ([3]; 0.56 mg/ml) was 84.1%, the “mean PFU/ml” value ([3]; 1 mg/ml) was 75 PFU/ml and the “percentage (PFU relative to untreated infected cells)” value ([3]; 1 mg/ml) was “(<100%)”. The “reduction of infectivity of SARS-CoV-2” value ([3]; any of the doses used (0.42, 0.56, 1 mg/ml), plaque assay) was “did not reduce the infectivity”.
